Assay results from patent US8883784B2, “Apoptosis-inducing agents for the treatment of cancer and immune and autoimmune diseases” (AbbVie Inc., priority 2012, dated 2014).
pEC50, pKi: −log10 of the molar value.

Key:
GST-Bcl-xL = GST-Bcl-xL (Homo sapiens (Human), UniProt Q07817); experiment: TR-FRET binding assay, competition with F-Bak for Bcl-xL; conditions: competition with F-Bak probe, GST-Bcl-xL 1 nM
Procedure: Determination of the utility of compounds having Formula (I) as binders to and inhibitors of anti-apoptotic Bcl-xL proteins was performed using the Time Resolved-Fluorescence Resonance Energy Transfer (TR-FRET) Assay. Tb-anti-GST antibody was purchased from Invitrogen (Catalog No. PV4216).
The measurement of competition of compounds of Formula (I) with F-Bak for a Bcl-2 family protein (Bcl-xL) binding site using a Time Resolved Fluorescence Resonance Energy Transfer (TR-FRET) binding assay:
Test compounds were serially diluted in DMSO starting at 50 μM (2× starting concentration; 10% DMSO) and 10 μL transferred into a 384-well plate.
The samples are then mixed on a shaker for 1 minute then incubated for an additional 2 hours at room temperature. For each assay plate, a probe/antibody and protein/antibody/probe mixture were included as a negative and a positive control, respectively. Fluorescence was measured on the ENVISION plate reader (Perkin Elmer) using a 340/35 nm excitation filter and 520/525 (F-Bak) and 495/510 nm (Tb-labeled anti-his antibody) emission filters. Dissociation constants (Ki) were determined using Wang's equation (Wang, Z. X. An 20 exact mathematical expression for describing competitive binding of two different ligands to protein molecule. FEBS Lett. 1995 360:111-114). The TR-FRET assay can be performed in the presence of varying concentrations of human serum (HS) or fetal bovine serum (FBS).

[1] = system: mouse FL5.12 cells transfected with Bcl-XL; experiment: FL5.12 cellular assay (cell viability, CellTiter-Glo); assay type: cell-based; conditions: IL-3-depleted, 3% FBS assay media, 24 hours, read-out: FL5.12 Bcl-xL, -IL3, EC 50
Procedure: The efficacy of the compounds of Formula (I) can also be determined in cell-based killing assays using a variety of cell lines and mouse tumor models. For example, their activity on cell viability can be assessed on a panel of cultured tumorigenic and non-tumorigenic cell lines, as well as primary mouse or human cell populations. In one exemplary set of conditions, mouse FL5.12 cells transfected with Bcl-XL were cultured under standard conditions in RPMI with 2 mM glutamine, 1% 100 mM sodium pyruvate, 2% 1 M HEPES, 4 μL/L of β-mercaptoethanol, 1% penicillinstreptomycin, 10% FBS, and 10% WEHI-3B conditioned media (for IL-3). For assaying the compound activity, the cells were exchanged into an IL-3-depleted deprivation media, which was identical to the growth media except for the absence of FBS and WEHI-3B conditional media, for 2 days. Then the cells were exchanged to 3% FBS assay media (RPMI with 2 mM glutamine, 1% 100 mM sodium pyruvate, 2% 1 M HEPES, 4 μL/L of β-mercaptoethanol, 1% penicillinstreptomycin, 3% FBS). Compounds in series dilutions were added, and the cells were cultured for 24 hours. Cell viability was assayed using the CellTiter-Glo assay (Promega Corp., Madison, Wis.) according to the manufacturer instructions. Individual determinations were the result of duplicate values.

Sequence of GST-Bcl-xL (Q07817 whole entry): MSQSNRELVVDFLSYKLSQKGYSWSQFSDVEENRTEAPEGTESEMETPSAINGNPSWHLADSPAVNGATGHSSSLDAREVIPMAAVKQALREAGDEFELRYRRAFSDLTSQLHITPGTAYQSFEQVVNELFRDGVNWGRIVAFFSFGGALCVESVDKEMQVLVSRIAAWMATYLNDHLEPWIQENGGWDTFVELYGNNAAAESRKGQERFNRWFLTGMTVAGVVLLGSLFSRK

| SMILES | pKi (GST-Bcl-xL) | pEC50 [1] |
| --- | --- | --- |
| CN(C)CC[C@H](CSc1ccccc1)Nc1ccc(S(=O)(=O)NC(=O)c2csc(N3CCc4cccc(C(=O)Nc5nc6ccccc6s5)c4C3)n2)cc1[N+](=O)[O-] [Example 1, N-(1,3-benzothiazol-2-yl)-2-(4-{[(4-{[(2R)-4-(dimethylamino)-1-(phenylsulfanyl)butan-2-yl]amino}-3-nitrophenyl)sulfonyl]carbamoyl}-1,3-thiazol-2-yl)-1,2,3,4-tetrahydroisoquinoline-8-carboxamide] | 10.00 | 7.25 |
| O=C(NS(=O)(=O)c1ccc(N[C@H](CCN2CCOCC2)CSc2ccccc2)c(S(=O)(=O)C(F)(F)F)c1)c1csc(N2CCc3cccc(C(=O)Nc4nc5ccccc5s4)c3C2)n1 [Example 2, N-(1,3-benzothiazol-2-yl)-2-(4-{[(4-{[(2R)-4-(morpholin-4-yl)-1-(phenylsulfanyl)butan-2-yl]amino}-3-[(trifluoromethyl)sulfonyl]phenyl)sulfonyl]carbamoyl}-1,3-thiazol-2-yl)-1,2,3,4-tetrahydroisoquinoline-8-carboxamide] | 10.00 | 7.92 |
| O=C(NS(=O)(=O)c1ccc(N[C@H](CCN2CCOCC2)CSc2ccccc2)c(S(=O)(=O)C(F)(F)F)c1)c1cccc(N2CCc3cccc(C(=O)Nc4nc5ccccc5s4)c3C2)n1 [Example 3, N-(1,3-benzothiazol-2-yl)-2-(6-{[(4-{[(2R)-4-(morpholin-4-yl)-1-(phenylsulfanyl)butan-2-yl]amino}-3-[(trifluoromethyl)sulfonyl]phenyl)sulfonyl]carbamoyl}pyridin-2-yl)-1,2,3,4-tetrahydroisoquinoline-8-carboxamide] | 7.92 | < 6.00 |
| CN(C)CCCNc1ccc(S(=O)(=O)NC(=O)c2nc(N3CCc4cccc(C(=O)Nc5nc6ccccc6s5)c4C3)ccc2CCCc2ccccc2)cc1[N+](=O)[O-] [Example 4, N-(1,3-benzothiazol-2-yl)-2-[6-{[(4-{[3-(dimethylamino)propyl]amino}-3-nitrophenyl)sulfonyl]carbamoyl}-5-(3-phenylpropyl)pyridin-2-yl]-1,2,3,4-tetrahydroisoquinoline-8-carboxamide] | 8.05 | < 6.00 |
| CN(C)CCCNc1ccc(S(=O)(=O)NC(=O)c2nc(N3CCc4cccc(C(=O)Nc5nc6ccccc6s5)c4C3)ccc2CCCc2ccccc2)cc1S(=O)(=O)C(F)(F)F [Example 5, N-(1,3-benzothiazol-2-yl)-2-[6-{[(4-{[3-(dimethylamino)propyl]amino}-3-[(trifluoromethyl)sulfonyl]phenyl)sulfonyl]carbamoyl}-5-(3-phenylpropyl)pyridin-2-yl]-1,2,3,4-tetrahydroisoquinoline-8-carboxamide] | 7.32 | < 6.00 |
| CN(C)CCCNc1ccc(S(=O)(=O)NC(=O)c2nc(N3CCc4cccc(C(=O)Nc5nc6ccccc6s5)c4C3)ccc2CCc2ccccc2)cc1[N+](=O)[O-] [Example 6, N-(1,3-benzothiazol-2-yl)-2-[6-{[(4-{[3-(dimethylamino)propyl]amino}-3-nitrophenyl)sulfonyl]carbamoyl}-5-(2-phenylethyl)pyridin-2-yl]-1,2,3,4-tetrahydroisoquinoline-8-carboxamide] | 7.77 | < 6.00 |
| CN(C)CCCNc1ccc(S(=O)(=O)NC(=O)c2csc(N3CCc4cccc(C(=O)Nc5nc6ccccc6s5)c4C3)n2)cc1S(=O)(=O)C(F)(F)F [Example 7, N-(1,3-benzothiazol-2-yl)-2-(4-{[(4-{[3-(dimethylamino)propyl]amino}-3-[(trifluoromethyl)sulfonyl]phenyl)sulfonyl]carbamoyl}-1,3-thiazol-2-yl)-1,2,3,4-tetrahydroisoquinoline-8-carboxamide] | 8.77 | < 6.00 |
| CN(C)CCCNc1ccc(S(=O)(=O)NC(=O)c2nc(N3CCc4cccc(C(=O)Nc5nc6ccccc6s5)c4C3)sc2Cc2ccccc2)cc1S(=O)(=O)C(F)(F)F [Example 8, N-(1,3-benzothiazol-2-yl)-2-(5-benzyl-4-{[(4-{[3-(dimethylamino)propyl]amino}-3-[(trifluoromethyl)sulfonyl]phenyl)sulfonyl]carbamoyl}-1,3-thiazol-2-yl)-1,2,3,4-tetrahydroisoquinoline-8-carboxamide] | 7.96 | < 6.00 |
| CN(C)CCCNc1ccc(S(=O)(=O)NC(=O)c2nc(N3CCc4cccc(C(=O)Nc5nc6ccccc6s5)c4C3)sc2Cc2ccccc2)cc1[N+](=O)[O-] [Example 9, N-(1,3-benzothiazol-2-yl)-2-(5-benzyl-4-{[(4-{[3-(dimethylamino)propyl]amino}-3-nitrophenyl)sulfonyl]carbamoyl}-1,3-thiazol-2-yl)-1,2,3,4-tetrahydroisoquinoline-8-carboxamide] | 7.39 | < 6.00 |
| O=C(NS(=O)(=O)c1ccc(N[C@H](CCN2CCOCC2)CSc2ccccc2)c([N+](=O)[O-])c1)c1csc(N2CCc3cccc(C(=O)Nc4nc5ccccc5s4)c3C2)n1 [Example 10, N-(1,3-benzothiazol-2-yl)-2-(4-{[(4-{[(2R)-4-(morpholin-4-yl)-1-(phenylsulfanyl)butan-2-yl]amino}-3-nitrophenyl)sulfonyl]carbamoyl}-1,3-thiazol-2-yl)-1,2,3,4-tetrahydroisoquinoline-8-carboxamide] | 9.85 |  |
| CN(C)CCCNc1ccc(S(=O)(=O)NC(=O)c2nc(N3CCc4cccc(C(=O)Nc5nc6ccccc6s5)c4C3)sc2CCc2ccccc2)cc1S(=O)(=O)C(F)(F)F [Example 11, N-(1,3-benzothiazol-2-yl)-2-[4-{[(4-{[3-(dimethylamino)propyl]amino}-3-[(trifluoromethyl)sulfonyl]phenyl)sulfonyl]carbamoyl}-5-(2-phenylethyl)-1,3-thiazol-2-yl]-1,2,3,4-tetrahydroisoquinoline-8-carboxamide] | 10.22 | 7.66 |
| CN(C)CC[C@H](CSc1ccccc1)Nc1ccc(S(=O)(=O)NC(=O)c2csc(N3CCc4cccc(C(=O)Nc5nc6ccccc6s5)c4C3)n2)cc1S(=O)(=O)C(F)(F)F [Example 12, N-(1,3-benzothiazol-2-yl)-2-(4-{[(4-{[(2R)-4-(dimethylamino)-1-(phenylsulfanyl)butan-2-yl]amino}-3-[(trifluoromethyl)sulfonyl]phenyl)sulfonyl]carbamoyl}-1,3-thiazol-2-yl)-1,2,3,4-tetrahydroisoquinoline-8-carboxamide] | 10.40 | 8.52 |
| CN(C)CCCNc1ccc(S(=O)(=O)NC(=O)c2nc(N3CCc4cccc(C(=O)Nc5nc6ccccc6s5)c4C3)sc2CCc2ccccc2)cc1[N+](=O)[O-] [Example 13, N-(1,3-benzothiazol-2-yl)-2-[4-{[(4-{[3-(dimethylamino)propyl]amino}-3-nitrophenyl)sulfonyl]carbamoyl}-5-(2-phenylethyl)-1,3-thiazol-2-yl]-1,2,3,4-tetrahydroisoquinoline-8-carboxamide] | 9.10 | 7.03 |
| O=C(NS(=O)(=O)c1ccc(N[C@H](CCO)CSc2ccccc2)c(S(=O)(=O)C(F)(F)F)c1)c1csc(N2CCc3cccc(C(=O)Nc4nc5ccccc5s4)c3C2)n1 [Example 14, N-(1,3-benzothiazol-2-yl)-2-(4-{[(4-{[(2R)-4-hydroxy-1-(phenylsulfanyl)butan-2-yl]amino}-3-[(trifluoromethyl)sulfonyl]phenyl)sulfonyl]carbamoyl}-1,3-thiazol-2-yl)-1,2,3,4-tetrahydroisoquinoline-8-carboxamide] | 9.70 |  |
| CN(C)CCCNc1ccc(S(=O)(=O)NC(=O)c2nc(N3CCc4cccc(C(=O)Nc5nc6ccccc6s5)c4C3)sc2CCCc2ccccc2)cc1[N+](=O)[O-] [Example 15, N-(1,3-benzothiazol-2-yl)-2-[4-{[(4-{[3-(dimethylamino)propyl]amino}-3-nitrophenyl)sulfonyl]carbamoyl}-5-(3-phenylpropyl)-1,3-thiazol-2-yl]-1,2,3,4-tetrahydroisoquinoline-8-carboxamide] | 8.30 |  |
